Measurements as given in patent US20220323406A1, “METHODS AND COMPOSITIONS FOR DIFFERENTIATING STEM CELLS” (Massachusetts Institute of Technology, priority 2019, published 2022).

What was measured:
Conditions in all cases: primary screen
[1] = test system: ENR+CD organoids (ISC to Paneth cell differentiation); assay: Primary screen: basal (non-stimulated) lysozyme secretion LYZ.NS, 2.5-D 384-well ENR+CD organoid differentiation; format: cell-based, mouse
Description: (§1) High-throughput screening.

[2] = test system: ENR+CD organoids (ISC to Paneth cell differentiation); assay: Primary screen: CCh-stimulated lysozyme secretion LYZ.S, 2.5-D 384-well ENR+CD organoid differentiation; format: cell-based, mouse
Description: as §1

ENR+CD organoids = assay: Primary screen: ATP (CellTiter-Glo 3D, CTG) cell number/viability, 2.5-D 384-well ENR+CD organoids;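 note: compounds given at plating and again on day 3 over a 6-day differentiation from ENR+CV stem-cell-enriched precursors, ATP measured on day 6, plate median as control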
[3] = 1st dose row of the treatment (0.08 uM by row order; dose not reprinted)
[4] = 2nd dose row of the treatment (0.40 uM by row order; dose not reprinted)
[5] = 3rd dose row of the treatment (2.00 uM by row order; dose not reprinted)
[6] = 4th dose row of the treatment (10.00 uM by row order; dose not reprinted)

CC(C)N(CC[C@H](c1ccccc1)c1cc(CO)ccc1O)C(C)C [4CE°8C]
SSMD.LYZ.NS_Rep (strictly standardized mean difference) [1, 3]: 0.497 | SSMD.LYZ.NS_Rep (strictly standardized mean difference) [1, 4]: 0.226 | SSMD.LYZ.NS_Rep (strictly standardized mean difference) [1, 5]: 0.128 | SSMD.LYZ.NS_Rep (strictly standardized mean difference) [1, 6]: −0.861 | Dose.FC.LYZ.NS ([1]; dose 0.08 uM): 0.069 log2 fold change | Z.LYZ.NS (standard z score) ([1]; dose 0.08 uM): 0.601 | Dose.FC.LYZ.NS ([1]; dose 0.40 uM): 0.047 log2 fold change | Z.LYZ.NS (standard z score) ([1]; dose 0.40 uM): 0.413 | Dose.FC.LYZ.NS ([1]; dose 2.00 uM): 0.016 log2 fold change | Z.LYZ.NS (standard z score) ([1]; dose 2.00 uM): 0.138 | Dose.FC.LYZ.NS ([1]; dose 10.00 uM): −0.095 log2 fold change | Z.LYZ.NS (standard z score) ([1]; dose 10.00 uM): −0.827 | SSMD.LYZ.S_Rep (strictly standardized mean difference) [2, 3]: 0.194 | Z.LYZ.S (standard z score) [2, 3]: 0.205 | SSMD.LYZ.S_Rep (strictly standardized mean difference) [2, 4]: 0.053 | Z.LYZ.S (standard z score) [2, 4]: 0.073 | SSMD.LYZ.S_Rep (strictly standardized mean difference) [2, 5]: −0.217 | Z.LYZ.S (standard z score) [2, 5]: −0.358 | SSMD.LYZ.S_Rep (strictly standardized mean difference) [2, 6]: −0.707 | Z.LYZ.S (standard z score) [2, 6]: −0.836 | Dose.FC.LYZ.S ([2]; dose 0.08 uM): 0.032 log2 fold change | Dose.FC.LYZ.S ([2]; dose 0.40 uM): 0.011 log2 fold change | Dose.FC.LYZ.S ([2]; dose 2.00 uM): −0.055 log2 fold change | Dose.FC.LYZ.S ([2]; dose 10.00 uM): −0.129 log2 fold change | SSMD.CTG.Rep (strictly standardized mean difference) (ENR+CD organoids; [3]): −0.402 | SSMD.CTG.Rep (strictly standardized mean difference) (ENR+CD organoids; [4]): 0.023 | SSMD.CTG.Rep (strictly standardized mean difference) (ENR+CD organoids; [5]): −0.340 | SSMD.CTG.Rep (strictly standardized mean difference) (ENR+CD organoids; [6]): −0.109 | Dose.FC.CTG (ENR+CD organoids; dose 0.08 uM): −0.111 log2 fold change | Z.CTG (standard z score) (ENR+CD organoids; dose 0.08 uM): −0.265 | Dose.FC.CTG (ENR+CD organoids; dose 0.40 uM): 0.007 log2 fold change | Z.CTG (standard z score) (ENR+CD organoids; dose 0.40 uM): 0.018 | Dose.FC.CTG (ENR+CD organoids; dose 2.00 uM): −0.162 log2 fold change | Z.CTG (standard z score) (ENR+CD organoids; dose 2.00 uM): −0.387 | Dose.FC.CTG (ENR+CD organoids; dose 10.00 uM): −0.039 log2 fold change | Z.CTG (standard z score) (ENR+CD organoids; dose 10.00 uM): −0.094

CC(C)c1ccc(NC(=O)Cn2cnc3c2c(=O)n(C)c(=O)n3C)cc1 [HC-030031]
Dose.FC.LYZ.NS (log2 fold change) ([1]; dose 0.08 uM): 0.063 | Z.LYZ.NS (standard z score) ([1]; dose 0.08 uM): 0.547 | Dose.FC.LYZ.NS (log2 fold change) ([1]; dose 0.40 uM): 0.033 | Z.LYZ.NS (standard z score) ([1]; dose 0.40 uM): 0.291 | Dose.FC.LYZ.NS (log2 fold change) ([1]; dose 2.00 uM): −0.007 | Z.LYZ.NS (standard z score) ([1]; dose 2.00 uM): −0.057 | Dose.FC.LYZ.NS (log2 fold change) ([1]; dose 10.00 uM): −0.047 | Z.LYZ.NS (standard z score) ([1]; dose 10.00 uM): −0.411 | Dose.FC.LYZ.S (log2 fold change) ([2]; dose 0.08 uM): 0.090 | Dose.FC.LYZ.S (log2 fold change) ([2]; dose 0.40 uM): 0.097 | Dose.FC.LYZ.S (log2 fold change) ([2]; dose 2.00 uM): −0.035 | Dose.FC.LYZ.S (log2 fold change) ([2]; dose 10.00 uM): 0.077 | Dose.FC.CTG (log2 fold change) (ENR+CD organoids; dose 0.08 uM): 0.082 | Z.CTG (standard z score) (ENR+CD organoids; dose 0.08 uM): 0.195 | Dose.FC.CTG (log2 fold change) (ENR+CD organoids; dose 0.40 uM): 0.191 | Z.CTG (standard z score) (ENR+CD organoids; dose 0.40 uM): 0.457 | Dose.FC.CTG (log2 fold change) (ENR+CD organoids; dose 2.00 uM): −0.008 | Z.CTG (standard z score) (ENR+CD organoids; dose 2.00 uM): −0.019 | Dose.FC.CTG (log2 fold change) (ENR+CD organoids; dose 10.00 uM): −0.241 | Z.CTG (standard z score) (ENR+CD organoids; dose 10.00 uM): −0.575

Oc1ccc2ccccc2c1SSc1c(O)ccc2ccccc12 [IPA-3]
Dose.FC.LYZ.NS (log2 fold change) ([1]; dose 0.08 uM): 0.004 | Z.LYZ.NS (standard z score) ([1]; dose 0.08 uM): 0.031 | Dose.FC.LYZ.NS (log2 fold change) ([1]; dose 0.40 uM): 0.003 | Z.LYZ.NS (standard z score) ([1]; dose 0.40 uM): 0.028 | Dose.FC.LYZ.NS (log2 fold change) ([1]; dose 2.00 uM): −0.001 | Z.LYZ.NS (standard z score) ([1]; dose 2.00 uM): −0.010 | Dose.FC.LYZ.NS (log2 fold change) ([1]; dose 10.00 uM): −0.021 | Z.LYZ.NS (standard z score) ([1]; dose 10.00 uM): −0.186 | Dose.FC.LYZ.S (log2 fold change) ([2]; dose 0.08 uM): 0.064 | Dose.FC.LYZ.S (log2 fold change) ([2]; dose 0.40 uM): −0.031 | Dose.FC.LYZ.S (log2 fold change) ([2]; dose 2.00 uM): 0.067 | Dose.FC.LYZ.S (log2 fold change) ([2]; dose 10.00 uM): −0.054 | Dose.FC.CTG (log2 fold change) (ENR+CD organoids; dose 0.08 uM): 0.219 | Z.CTG (standard z score) (ENR+CD organoids; dose 0.08 uM): 0.524 | Dose.FC.CTG (log2 fold change) (ENR+CD organoids; dose 0.40 uM): −0.332 | Z.CTG (standard z score) (ENR+CD organoids; dose 0.40 uM): −0.793 | Dose.FC.CTG (log2 fold change) (ENR+CD organoids; dose 2.00 uM): −0.084 | Z.CTG (standard z score) (ENR+CD organoids; dose 2.00 uM): −0.202 | Dose.FC.CTG (log2 fold change) (ENR+CD organoids; dose 10.00 uM): −0.054 | Z.CTG (standard z score) (ENR+CD organoids; dose 10.00 uM): −0.128
